The values below come from patent US12010997B2, “Systems, methods, and apparatuses for disinfection and decontamination” (priority 2020, dated 2024).

This test deals with Phi6 bacteriophage (surrogate for Coronavirus and Ebola). The test is classed as cell-based.

Turning to `[O][Cl+][O-]` [ClO2, chlorine dioxide], the “log reduction of virions” value was found to be 6 log, the “time in which 6-log reduction was achieved” value is reported as “less than 90 minutes” and the “virions recovered from the coupons treated with ClO2 gas” value was “no virions were recovered”.
